From patent US4996358A, “Hydroxylamine bearing amino acid derivatives as collagenase inhibitors” (Hoffmann-La Roche Inc., priority 1986, dated 1991)

Biological target: T1, human synovial collagenase (Homo sapiens, UniProt P03956)
T1 construct: endogenous in cells; host or cells: human synovial fibroblast culture; procollagenase partially purified from the culture medium
T1 sequence (P03956 100-469): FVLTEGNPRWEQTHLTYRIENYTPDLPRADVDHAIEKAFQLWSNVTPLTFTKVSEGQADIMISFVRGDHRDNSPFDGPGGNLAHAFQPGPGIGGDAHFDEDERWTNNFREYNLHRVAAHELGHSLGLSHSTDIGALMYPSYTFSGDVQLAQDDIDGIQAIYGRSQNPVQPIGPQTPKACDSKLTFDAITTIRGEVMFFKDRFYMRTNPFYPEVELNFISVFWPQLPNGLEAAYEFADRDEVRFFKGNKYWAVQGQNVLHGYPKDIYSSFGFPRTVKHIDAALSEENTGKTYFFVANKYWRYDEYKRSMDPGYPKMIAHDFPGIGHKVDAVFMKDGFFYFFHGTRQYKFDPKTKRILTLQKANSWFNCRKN
Assay: In vitro inhibition of collagenase from human synovial fibroblast culture (synthetic peptide substrate cleavage)
Type: biochemical
Settings: trypsin-activated procollagenase; 0.5 mmol N-acetyl-L-prolyl-L-leucylglycyl-L-leucyl-L-leucylglycyl ester substrate; borate buffer pH 7.5, CaCl2; 37° C., 1 hour; read-out: Inhibitory activity against human synovial collagenase IC50
Method: Procollagenase was partially purified from the cell culture medium by negative adsorption on DEAE Sephadex A-50 at pH 8.1 and activated by treatment with tryspin. The inhibitory activity of the present hydroxylamine derivatives was determined using a synthetic substrate, N-acetyl-L-prolyl-L-leucylglycyl-L-leucyl-L-leucylglycyl […], for this collagenase. The enzyme was added to a solution of 0.5 mmol of substrate in 50 mmol of borate buffer (pH 7.5) containing 1 mmol of calcium chloride and a known concentration of peptide derivative. The resulting solution was incubated at 37° C. for 1 hour. Enzyme digestion of the substrate was terminated by the addition of an equal volume of 2% (weight/volume) sodium hydrogen carbonate solution in 50% aqueous methanol containing 0.1% (weight/volume) of picrylsulfonic acid. The solution obtained was incubated at 37° C. for an additional 1 hour in order to allow reaction between the L-leucyl-L-leucyl-glycyl ethyl ester generated by the cleavage of the substrate and the picrylsulfonic acid to give trinitrophenyl-L-leucyl-L-leucylglycyl ethyl ester. The reaction was terminated and stabilized by acidification with IN hydrochloric acid. The concentration of trinitrophenyl-L-leucyl-L-leucylglycyl ethyl ester was determined by spectrophotometry at 335 nm. The IC50 is that concentration of hydroxylamine derivative of formula I of the invention in the enzyme digestion which reduces substrate cleavage to 50% of that achieved by the enzyme alone.

IC50 | Structure (SMILES)
300 nM | CCOC(=O)CNC(=O)[C@H](CC(C)C)NC(=O)C(CC(C)C)CN(O)C=O (mixture of isomers) [C, [N-formyl-N-hydroxy 2(RS)-isobutyl-3-aminopropionyl]-L-leucylglycine ethyl ester]
25 nM | CCOC(=O)CNC(=O)[C@H](CC(C)C)NC(=O)[C@@H](CC(=O)NO)CC(C)C [A, [4-(N-Hydroxyamino) 2(R)-isobutylsuccinyl]-L-leucylglycine ethyl ester]
8.5 nM | CCOC(=O)[C@H](C)NC(=O)[C@H](CC(C)C)NC(=O)[C@@H](CC(=O)NO)CC(C)C [B, [4-(N-hydroxyamino) 2(R)-isobutylsuccinyl]-L-leucyl-L-alanine ethyl ester]
30 nM | CCOC(=O)[C@H](C)NC(=O)[C@H](CCCCNC(=O)CN)NC(=O)[C@@H](CC(=O)NO)CC(C)C [D, N^α -[4-(N-hydroxyamino) 2(R)-isobutylsuccinyl]-N^ε -glycyl-L-lysyl-L-alanine ethyl ester]
38 nM | CC(C)C[C@H](CC(=O)NO)C(=O)NC1CCCCCCCCCCNC1=O (stereo partly drawn) [E, [4-(N-hydroxyamino) 2(R)-isobutylsuccinyl]-3(RS)-aminolaurolactam]
12 nM | CCOC(=O)CNC(=O)[C@H](CC(C)C)NC(=O)[C@H](CC(C)C)[C@H](CCCCN1C(=O)c2ccccc2C1=O)C(=O)NO [F, [4-(N-hydroxyamino) 3(S)-phthaloylaminobutyl-2(R)-isobutylsuccinyl]-L-leucylglycine ethyl ester]
